Test results taken from patent publication US9089499B2, “Para-coumaric acid or para-hydroxycinnamic acid derivatives and their use in cosmetic or dermatological compositions” (BASF Beauty Care Solutions France S.A.S., priority 2005, dated 2015).

Legend:
normal human melanocytes = assay: Cytotoxicity on normal human melanocytes, PNPP assay; assay type: cell-based; details: 24 hours, relative to untreated wells
[1] = Antiradical activity, acellular DPPH model; details: DPPH 30 minutes, absorbance 520 nm

## COc1cc(/C=C/C(=O)NCCc2ccc(O)c(O)c2)ccc1O [Example 1, N-trans-feruloyldopamine]
Normal human melanocytes; 10^−4 M
  Percentages of viability, Mean 10^−4 M: 94.49%
Normal human melanocytes; 10^−5 M
  Percentages of viability, Mean 10^−5 M: 119.83%
[1]
  Antiradical activity, Mean 10^−5 M: 60.01%
